Measurements reported in PMC12677607, “Identification of a Pair of Linear or Cyclic Naturally Inspired Bifunctional Lipopeptide Antibiotics That Overcome Antimicrobial Resistance” (Advanced Science, 2025).
Bridge positions count the residues as written; N and C are the ends. Square brackets hold non-standard residues; d marks the D form. Peptide text beside a SMILES is read from it. * marks the point of attachment. Myristoyl = CCCCCCCCCCCCCC(=O)*; Orn = NCCC[C@H](N)C(=O)O; Dab = NCC[C@H](N)C(=O)O; Dap = NC[C@H](N)C(=O)O

What was measured:
[1] = tested on: S. aureus USA300 MprFT345A; test: MIC against daptomycin-resistant mutant; type: cell-based
Method: (§1) All MIC assays were performed two independent times (n = 2) in 96‐well plates using a broth micro‐dilution method. The lowest concentration of that inhibited visible microbial growth was recorded as the MIC value.
(§2) For most of bacterial strains, overnight cultures were diluted 5000‐fold in LB broth. For E. faecium and S. aureus, overnight cultures were diluted 1000‐ and 10000‐fold in LB broth, respectively. 100 µL of diluted cells was mixed with 100 µL of LB broth containing each peptide ranging from 64 to 0.125 µg mL^−1 at 2‐fold serial dilutions.
(§3) Overnight cultures S. aureus USA300 were diluted 10000‐fold in LB broth, and 100 µL of dilute cell suspension was added to 96‐well plates containing 100 µL serially diluted aquicidine C4, telomycin, and daptomycin (with 15 mM CaCl2). Overnight cultures K. pneumoniae CRKP5452 were diluted 5000‐fold in LB broth, and 100 µL of dilute cell suspension was added to 96‐well plates containing 100 µL serially diluted aquicidine L and colistin. After an incubation of 24 h at 37 °C, the MIC value was determined. […] The MIC value was recorded as described above, and the process was repeated daily for 21 days. Experiments were performed two independent times (n = 2).
(§4) Single‐nucleotide polymorphisms (SNPs) for telomycin‐, daptomycin‐ or colistin‐resistant mutants were identified using SNIPPY by mapping DNBSEQ‐seq reads to the reference genome of S. aureus USA300 or K. pneumoniae CRKP5452.

[2] = tested on: vancomycin-resistant E. faecium 35682; test: Mouse peritonitis-sepsis model; type: in vivo; details: E. faecium 35682, ICR mice, single s.c. dose 1 h after infection, doses 50, 100, 150 mg kg^−1, n = 5
Method: (§5) Six‐week‐old female ICR mice were used in all experiments and housed in a temperature‐controlled room (25 °C) with 12‐h light/dark cycle and 30% relative humidity. Mice were observed twice daily for mortality and morbidity. Abnormal clinical signs were recorded if observed and totally monitored for five days. The detailed methods for the mouse peritonitis‐sepsis model were as follows.
Vancomycin‐resistant E. faecium 35682 was cultured in BHI broth at 37 °C fro 16 h and diluted with 5% type II porcine stomach mucin and 0.9% NaCl. E. faecium cell cultures were diluted to provide a challenge inoculum of 4.0 × 10^9 CFU in 0.5 mL and then administered into each mouse via intraperitoneal injection. 25 mice were randomly grouped into five per cohort (n = 5) and each cohort was given a single dose of either vehicle (20% solutol), aquicidine C4 at 50, 100 or 150 mg/kg and daptomycin at 100 mg kg^−1 with 15 mM CaCl2 1 h after infection via subcutaneous injection.

[3] = tested on: K. pneumoniae CRKP 5452 PhoQL348Q; test: MIC against colistin-resistant mutant; type: cell-based
Method: as §1, §2, §3, §4

[4] = tested on: meropenem-resistant A. baumannii 1104008; test: Mouse peritonitis-sepsis model; type: in vivo; details: A. baumannii 1104008, neutropenic ICR mice, s.c. 1 h after infection and every 12 h up to 36 h, doses 12.5, 25, 50 mg kg^−1, n = 5
Method: as §5
(§6) Meropenem‐resistant A. baumannii 1104008 or K. pneumoniae CRKP 5452 was cultured in LB broth at 37 °C fro 16 h and diluted with 5% type II porcine stomach mucin and 0.9% NaCl. All mice were rendered […] via intraperitoneal injection of cyclophosphamide at 150 mg/kg on day‐4 and day‐1 before infection. A. baumannii or K. pneumoniae cell cultures were diluted to provide a challenge inoculum of 5.0 × 10^7 CFU in 0.5 mL and then administered into each mouse via intraperitoneal injection. 25 mice were randomly grouped into five per cohort (n = 5) and each cohort was given a single dose of either vehicle (20% solutol), aquicidine L at 12.5, 25, or 50 mg kg^−1, and colistin at 12.5 mg kg^−1 1 h after infection via subcutaneous injection and repeated every 12 h up to 36 h (totally four injections).

[5] = tested on: meropenem-resistant K. pneumoniae CRKP 5452; test: Mouse peritonitis-sepsis model; type: in vivo; details: K. pneumoniae CRKP5452, neutropenic ICR mice, s.c. 1 h after infection and every 12 h up to 36 h, doses 12.5, 25, 50 mg kg^−1, n = 5
Method: as §5, §6

| Compound | antibacterial activity (MIC) S. aureus USA300 MprFT345A ([1]; Figure S127b, daptomycin-resistant mutant) [µg/mL] | increase in MIC against resistant mutant compared to wild type ([1]; S. aureus USA300 MprF^T345A vs wild type) [fold] | minimal dose required for 100% survival [2] [mg/kg] | antibacterial activity (MIC) K. pneumoniae CRKP 5452 PhoQL348Q ([3]; Figure S127a, colistin-resistant mutant from serial passaging) [µg/mL] | increase in MIC against resistant mutant compared to wild type ([3]; K. pneumoniae CRKP5452 PhoQ^L348Q vs wild type) [fold] | minimal dose required for 100% survival [4] [mg/kg] | minimal dose required for 100% survival [5] [mg/kg] |
| --- | --- | --- | --- | --- | --- | --- | --- |
| CCCCCCCCCCCCCC(=O)N[C@@H](CN)C(=O)N[C@H](C(=O)N[C@@H](CC(C)C)C(=O)N[C@H]1COC(=O)[C@H](Cc2ccccc2)NC(=O)[C@H](CC(N)=O)NC(=O)[C@H](CCCN)NC(=O)[C@H]([C@@H](C)CC)NC(=O)[C@H](Cc2ccccc2)NC(=O)[C@H](CN)NC(=O)[C@H](CCN)NC1=O)[C@@H](C)O [synAQU5-C4] (Myristoyl-[Dap]TLS[Dab][Dap]FI[Orn]NF; ester 4-C) | 16 | 4 | 100 | – | – | – | – |
| CCCCCCCCCCCCCC(=O)N[C@@H](CN)C(=O)N[C@H](C(=O)N[C@@H](CC(C)C)C(=O)N[C@@H](CO)C(=O)N[C@@H](CCN)C(=O)N[C@@H](CN)C(=O)N[C@@H](Cc1ccccc1)C(=O)N[C@H](C(=O)N[C@@H](CCCN)C(=O)N[C@@H](CC(N)=O)C(=O)N[C@@H](Cc1ccccc1)C(=O)O)[C@@H](C)CC)[C@@H](C)O [synAQU5-L] (Myristoyl-[Dap]TLS[Dab][Dap]FI[Orn]NF-OH) | – | – | – | 16 | 4 | 50 | 50 |
